Laboratory results from US5227395A, “Anti-platelet aggregating agent” (Nisshin Flour Milling Co., Ltd., priority 1991, dated 1993).

System: platelet aggregation
Experiment: In vitro anti-platelet test: inhibition of arachidonic acid-induced platelet aggregation in platelet-rich plasma (Born's turbidimetric method)
Type: cell-based, male Japanese white rabbits
Details: Oryctolagus cuniculus, 5 min, rabbit PRP, 37° C., read-out: Percentage inhibition of platelet aggregation; for inhibition at 50 µg/mL: 50 μg/ml; for inhibition at 100 µg/mL: 100 μg/ml; for inhibition at 10 µg/mL: 10 μg/ml; for inhibition at 25 µg/mL: 25 μg/ml
Method: The anti-platelet aggregating activity of the compounds of the present invention was determined by Born's turbidimetric method (G.V.R. Born, Nature, No. 4832, Jun. 9, 1962, 927-929) using an aggregometer (NKK Hema Tracer 1, PAT-4M, NKK Inc. Japan).
PRP was prepared from male Japanese white rabbits weighing 2.3-4.1 kg. Blood was drawn into syringes containing 3.8% sodium citrate (1/10 volume) and centrifuged at 1000 r.p.m. for 10 min. at room temperature. Platelet poor plasma (PPP) was obtained from the supernatant fraction of the residual blood by centrifugation at 3000 r.p.m. for 10 min. The aggregation (%) was calculated against the turbidity of PPP, which was designated as 100%. 1.2. In vitro anti-platelet test
A 200 μl volume of PRP was placed in the cuvette of the aggregometer and incubated at 37° C. To the cuvette was added 25 μl of 10% methanol solution in physiological saline as a solvent or 25 μl of test drug solution dissolved in the solvent in a predetermined concentration (μg/ml) indicated in Table 2, which was stirred and incubated. 5 min. after, platelet aggregation was induced by the addition of 25 μl of 10^-2 M arachidonic acid. Changes in the percentage of aggregation was recorded on a multirecorder (T626-DS, NKK Inc., Japan). 1-(4' -Methoxybenzoyl)-2-pyrrolidinone (aniracetam) was used as a control compound.
2. Result The percentage inhibition (I) of platelet aggregation by a test drug was calculated from the following equation: […]
in which A is the percentage maximum aggregation for addition of the drug and B is the percentage maximum aggregation for no addition of the drug.

| Structure (SMILES) | inhibition at 50 µg/mL [%] | inhibition at 100 µg/mL [%] | inhibition at 10 µg/mL [%] | inhibition at 25 µg/mL [%] |
| --- | --- | --- | --- | --- |
| COc1ccc(C(=O)N2CCCC2=O)cc1 [Aniracetam, 1-(4' -Methoxybenzoyl)-2-pyrrolidinone, reference compound] | 0.4 | 4.1 |  |  |
| COc1ccccc1OC(=O)N1CCCC1=O [Compound No. 2, 1-(2'-Methoxyphenoxycarbonyl)-2-pyrrolidinone] | 81.6 | 96.2 | 40.9 | 69.8 |
| COc1cccc(OC(=O)N2CCCC2=O)c1 [Compound No. 3, 1-(3'-Methoxyphenoxycarbonyl)-2-pyrrolidinone] | 8.5 | 28.6 |  |  |
| COc1ccc(OC(=O)N2CCCC2=O)cc1 [Compound No. 4, 1-(4'-Methoxyphenoxycarbonyl)-2-pyrrolidinone] | 95.5 | 98.2 | 51.1 | 72.5 |
| Cc1ccccc1OC(=O)N1CCCC1=O [Compound No. 5, 1-(2'-Methylphenoxycarbonyl)-2-pyrrolidinone] | 50.6 | 92.3 | 5 | 35.8 |
| Cc1cccc(OC(=O)N2CCCC2=O)c1 [Compound No. 6, 1-(3'-Methylphenoxycarbonyl)-2-pyrrolidinone] | 4.7 | 39.7 |  |  |
| Cc1ccc(OC(=O)N2CCCC2=O)cc1 [Compound No. 7, 1-(4'-Methylphenoxycarbonyl)-2-pyrrolidinone] | 70.6 | 97.7 | 5.8 | 31 |
| COc1cccc(OC)c1OC(=O)N1CCCC1=O [Compound No. 18, 1-(2',6'-Dimethoxyphenoxycarbonyl)-2-pyrrolidinone] | 90.9 | 96.4 | 26 | 64.8 |
